Data from the NIST ThermoML archive (doi:10.1016/j.fluid.2006.01.028).

Experiments:
[1] = for surface tension liquid-gas: Drop volume; for mass density: Liquid
[2] = xn = mol fraction of the nth substance listed; details: for surface tension liquid-gas: Drop volume; for mass density: 101 kPa, Liquid

CCCCCCO [hexan-1-ol]
[1]
Details	mass density [kg/m3]	surface tension liquid-gas [mN/m]
288.15 K	822.28	26.08
298.15 K	815.23	25.19
308.15 K	808	24.19

CCCCCCCCC [nonane] + CCCCCCO
[2]
Details	mass density [kg/m3]	surface tension liquid-gas [mN/m]
288.15 K, x1 = 0.05	–	25.77
288.15 K, x1 = 0.0509	815.13	–
288.15 K, x1 = 0.1003	808.46	–
288.15 K, x1 = 0.1082	–	25.47
288.15 K, x1 = 0.2028	795.35	–
288.15 K, x1 = 0.2075	–	25.06
288.15 K, x1 = 0.307	783.01	–
288.15 K, x1 = 0.3079	–	24.62
288.15 K, x1 = 0.4026	772.51	–
288.15 K, x1 = 0.4075	–	24.31
288.15 K, x1 = 0.5066	–	24.01
288.15 K, x1 = 0.5086	761.75	–
288.15 K, x1 = 0.6016	753.02	–
288.15 K, x1 = 0.6024	–	23.81
288.15 K, x1 = 0.7079	–	23.68
288.15 K, x1 = 0.708	743.74	–
288.15 K, x1 = 0.808	735.7	–
288.15 K, x1 = 0.8081	–	23.57
288.15 K, x1 = 0.9016	728.72	–
288.15 K, x1 = 0.9036	–	23.48
288.15 K, x1 = 0.9506	725.26	–
288.15 K, x1 = 0.9554	–	23.44
298.15 K, x1 = 0.0504	–	24.84
298.15 K, x1 = 0.0509	807.93	–
298.15 K, x1 = 0.1003	801.18	–
298.15 K, x1 = 0.1004	–	24.54
298.15 K, x1 = 0.2028	787.95	–
298.15 K, x1 = 0.2042	–	24.12
298.15 K, x1 = 0.2998	–	23.69
298.15 K, x1 = 0.307	775.48	–
298.15 K, x1 = 0.388	–	23.41
298.15 K, x1 = 0.4026	764.9	–
298.15 K, x1 = 0.5011	–	23.07
298.15 K, x1 = 0.5086	754.06	–
298.15 K, x1 = 0.6016	745.28	–
298.15 K, x1 = 0.606	–	22.84
298.15 K, x1 = 0.708	735.96	–
298.15 K, x1 = 0.7086	–	22.66
298.15 K, x1 = 0.808	727.88	–
298.15 K, x1 = 0.8085	–	22.56
298.15 K, x1 = 0.9007	–	22.48
298.15 K, x1 = 0.9016	720.88	–
298.15 K, x1 = 0.9506	717.44	–
298.15 K, x1 = 0.9508	–	22.39
308.15 K, x1 = 0.0509	800.64	–
308.15 K, x1 = 0.0511	–	23.81
308.15 K, x1 = 0.1003	793.82	–
308.15 K, x1 = 0.1013	–	23.52
308.15 K, x1 = 0.2028	780.43	–
308.15 K, x1 = 0.2059	–	23.08
308.15 K, x1 = 0.3066	–	22.59
308.15 K, x1 = 0.307	767.86	–
308.15 K, x1 = 0.4026	757.19	–
308.15 K, x1 = 0.404	–	22.27
308.15 K, x1 = 0.5065	–	21.98
308.15 K, x1 = 0.5086	746.28	–
308.15 K, x1 = 0.6016	737.44	–
308.15 K, x1 = 0.6028	–	21.77
308.15 K, x1 = 0.708	728.09	–
308.15 K, x1 = 0.7135	–	21.59
308.15 K, x1 = 0.8059	–	21.47
308.15 K, x1 = 0.808	719.98	–
308.15 K, x1 = 0.9016	712.97	–
308.15 K, x1 = 0.9043	–	21.34
308.15 K, x1 = 0.9506	709.52	–
308.15 K, x1 = 0.9519	–	21.27

CCCCCCCCC [nonane]
[1]
Details	mass density [kg/m3]	surface tension liquid-gas [mN/m]
288.15 K	721.78	23.38
298.15 K	714.02	22.37
308.15 K	706.21	21.25
